Data published in patent US9504858B2 (Colgate-Palmolive Company, priority 2012, dated 2016).

Columns and labels:
[1] = biological target: Bovine Serum Albumin (BSA) (Bos taurus, UniProt P02769); test: Flocculation of ZLC in the presence of protein (BSA); assay type: physicochemical; conditions: ZLC 15 mg/ml, 5 hours, 37° C.
Protocol: Turbidity and pH of solutions are measured 5 hours after the mixtures were placed in a 37° C. oven, and the results are shown in Table 3: […]

[2] = system: bacterial culture; test: Zone of inhibition test; assay type: cell-based; conditions: 20 μl on filter paper discs, TSA plates, 20 hours at 37° C.
Protocol: A zone of inhibition test is conducted on several materials: zinc oxide, lysine hydrochloride, and ZLC. The method involves making a lawn of freshly prepared bacterial culture on TSA (trypticase soy agar) plates. Sterile filter paper discs are seeded with 20 μl of test sample (supernatant or mixture). Sample-coated filter paper discs are air dried and applied onto the bacterial lawn on TSA plates. Plates are incubated for 20 hours at 37° C.

[3] = Hydrolysis reaction: pH and turbidity of diluted ZLC solutions before and after aging; assay type: physicochemical; conditions: for pH after aging / turbidity after aging (NTU): 37° C. oven over 5 hours
Protocol: A 185 mg/ml ZLC solution is prepared and diluted several-fold and aged in a 37° C. oven over 5 hours for turbidity studies. […] Turbidity of the solutions is measured using a nephelometer, results being given in nephelometric turbidity units (NTU).

[4] = sample 3: 1% BSA, pH adjusted to 5.13

Bovine Serum Albumin (BSA), sequence (P02769 25-607): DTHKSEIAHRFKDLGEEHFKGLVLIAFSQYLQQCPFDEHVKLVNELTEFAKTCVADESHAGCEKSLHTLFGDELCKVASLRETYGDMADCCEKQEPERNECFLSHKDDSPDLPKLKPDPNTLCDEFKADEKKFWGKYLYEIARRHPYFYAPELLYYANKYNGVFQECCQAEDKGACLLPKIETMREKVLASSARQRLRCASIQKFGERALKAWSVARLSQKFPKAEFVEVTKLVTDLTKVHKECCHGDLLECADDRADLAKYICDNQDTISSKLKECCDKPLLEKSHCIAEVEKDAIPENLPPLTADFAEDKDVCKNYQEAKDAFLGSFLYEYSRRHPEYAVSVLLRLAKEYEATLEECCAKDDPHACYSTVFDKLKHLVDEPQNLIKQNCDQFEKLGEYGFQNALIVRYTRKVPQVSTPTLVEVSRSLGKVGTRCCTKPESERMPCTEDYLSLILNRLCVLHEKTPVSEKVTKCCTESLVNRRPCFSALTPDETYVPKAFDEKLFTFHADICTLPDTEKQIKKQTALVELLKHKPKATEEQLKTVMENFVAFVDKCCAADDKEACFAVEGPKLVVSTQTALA

## [Zn(C6H14N2O2)2Cl]^+Cl^− [ZLC]
[1]; sample 1: DI water, 0% BSA
  Turbidity(NTU): 357 NTU
  pH: 7.98
[1]; sample 2: 1% BSA, pH 7.17
  Turbidity(NTU): >1000 NTU
  pH: 8.16
[1]; [4]
  Turbidity(NTU): >1000 NTU
  pH: 7.97
[2]
  antibacterial activity (zone of inhibition): better antibacterial activity than zinc oxide alone or lysine hydrochloride alone
[3]; 5.78 mg/ml
  initial pH: 8.0
  initial turbidity (NTU): 40.1 NTU
  pH after aging: 8.0
  turbidity after aging (NTU): >1000 NTU
[3]; 11.56 mg/ml
  initial pH: 7.8
  initial turbidity (NTU): 14.8 NTU
  pH after aging: 7.8
  turbidity after aging (NTU): >1000 NTU
[3]; 23.125 mg/ml
  initial pH: 7.7
  initial turbidity (NTU): 0.70 NTU
  pH after aging: 7.7
  turbidity after aging (NTU): 247.4 NTU
[3]; 46.25 mg/ml
  initial pH: 7.4
  initial turbidity (NTU): 1.48 NTU
  pH after aging: 7.4
  turbidity after aging (NTU): 2.81 NTU
[3]; 92.5 mg/ml
  initial pH: 7.0
  initial turbidity (NTU): 2.78 NTU
  pH after aging: 7.0
  turbidity after aging (NTU): 2.60 NTU
[3]; 185 mg/ml
  initial pH: 6.8
  initial turbidity (NTU): 4.75 NTU
  pH after aging: 6.8
  turbidity after aging (NTU): 4.08 NTU
[3]; 8×, 16× and 32× diluted solutions, precipitates identified by PXRD
  behaviour of the complex upon dilution: disassociates upon dilution, with consequent precipitation of zinc oxide
